Source: PMC7251097, “Aspartate/asparagine-β-hydroxylase: a high-throughput mass spectrometric assay for discovery of small molecule inhibitors” (Scientific Reports, 2020)
Where a name gives a salt, the structure may show the parent alone. Read-outs that look alike come from different tables or passages of the source.

Target: T1, His6-AspH315–758 (human aspartate/asparagine-β-hydroxylase, AspH) (Homo sapiens, UniProt Q12797)
T1 construct: N-Terminally His6-tagged human AspH315–758 (His6-AspH315–758) was produced in E. coli BL21 (DE3) cells; made in house; host or cells: E. coli BL21 (DE3), pET-28a(+) vector
T1 sequence (Q12797 315-758): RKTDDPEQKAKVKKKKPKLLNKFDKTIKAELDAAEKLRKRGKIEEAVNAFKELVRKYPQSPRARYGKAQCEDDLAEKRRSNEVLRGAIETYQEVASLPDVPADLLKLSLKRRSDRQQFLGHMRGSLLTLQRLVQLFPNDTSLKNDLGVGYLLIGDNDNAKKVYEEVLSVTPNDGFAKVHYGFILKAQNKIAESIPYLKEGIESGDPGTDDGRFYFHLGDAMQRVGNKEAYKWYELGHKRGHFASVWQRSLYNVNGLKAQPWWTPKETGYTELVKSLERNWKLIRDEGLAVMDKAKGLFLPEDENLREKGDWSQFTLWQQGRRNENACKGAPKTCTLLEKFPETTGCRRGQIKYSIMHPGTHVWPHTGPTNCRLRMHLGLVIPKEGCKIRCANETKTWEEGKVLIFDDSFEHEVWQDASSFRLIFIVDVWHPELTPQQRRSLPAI
Test: SPE-MS AspH inhibition assay (LOPAC screen at fixed 20 μM and IC50 dose-response), hydroxylation of cyclic peptide hFX-CP101–119
Format: biochemical
Details: for Plate 5 (% inhibition) / Plate 5 (% conversion): plate 5 (Pfitzer), test compounds at fixed 20 μM; for Plate 5 (% conversion): mean conversion DMSO 32.88; for Plate 2 (% inhibition): normalised to DMSO and 2,4-PDCA controls; for IC50: read-out: IC50

[1] = LOPAC Plate 4, compound at 20 uM
[2] = LOPAC Plate 4, compound at 20 uM, substrate conversion
[3] = LOPAC Plate 4, compound at 20 uM, read-out: % inhibition
[4] = LOPAC compound at 20uM, plate 2, conversion of substrate peptide
[5] = LOPAC compound at 20uM, plate 2
[6] = LOPAC compound at 20uM, plate 3, conversion of substrate peptide
[7] = LOPAC compound at fixed 20 uM, plate 1, normalised to DMSO and 2,4-PDCA controls
[8] = LOPAC compound at fixed 20 uM, substrate conversion, plate 1
[9] = 50 nM His6-AspH315–758, 1.0 μM hFX-CP101–119, 3 μM 2OG, 2 μM Fe(II), 50 mM HEPES pH 7.5, 20 °C, mean ± SD, n = 2 (2,4-PDCA n = 10)

N#CC(C#N)=C(N)/C(C#N)=C/c1ccc(O)cc1 [Tyrphostin AG 112]
% inhibition [1]: -1.91%
% conversion [2]: 37.12%

N#C/C(=C\c1ccc(O)c(O)c1)C(=O)c1ccc(O)c(O)c1 [Tyrphostin AG 538]
% conversion [2]: 29.27%

CC(C)(C)c1cc(/C=C(\C#N)C(N)=S)cc(C(C)(C)C)c1O [Tyrphostin AG 879]
% conversion [2]: 26.24%

COc1cc2ncnc(Nc3cccc(Cl)c3)c2cc1OC [Tyrphostin AG 1478]
% conversion [2]: 38.87%
inhibition at 20 µM [3]: -7.04%

N#CC(=C(/N)Sc1ccccc1N)/C(C#N)=C(/N)Sc1ccccc1N [U0126]
% inhibition [1]: -0.28%
% conversion [2]: 36.57%

COc1ccc2c(c1)CC[C@@H]1[C@@H]2CC[C@]2(C)[C@@H](NCCCCCCN3C(=O)CCC3=O)CC[C@@H]12 [U-73343]
Plate 3 (% conversion): 43.26%

C[C@]12C=CC(=O)C=C1CC[C@@H]1C2=CC[C@]2(C)[C@@H](C(=O)CN3CCN(c4cc(N5CCCC5)nc(N5CCCC5)n4)CC3)CC[C@@H]12.O=C(O)/C=C\C(=O)O [U-74389G maleate]
% conversion: 25.11%
% inhibition [1]: 33.28%

CCCN(CCC)C1Cc2cc(OC)c(OC)cc2C1.O=C(O)/C=C\C(=O)O [U-99194A maleate]
% inhibition [1]: 4.59%
% conversion [2]: 34.90%

CC(C)Oc1cccnc1N(C)C1CCN(Cc2ccccc2)CC1.O=C(O)/C=C\C(=O)O [U-101958 maleate]
% conversion [2]: 35.76%

Brc1c(NC2=NCCN2)ccc2nccnc12 [UK 14,304]
% conversion: 39.75%
% inhibition (20 µM): -9.62%

N#C/C(=C\c1cn(-c2ccccc2)c2ccccc12)C(=O)O [UK-5099]
Plate 5 (% inhibition): 37.56%
Plate 5 (% conversion): 23.53%

Cc1cc(CCC[C@H](CC(=O)NO)C(=O)N[C@H](C(=O)N[C@H](C)c2ccccc2)C(C)(C)C)ccc1-c1ccccc1 [UK-356618]
Plate 5 (% inhibition): 84.86%
Plate 5 (% conversion): 7.43%

NC(=O)c1noc([C@H](CCCC2CCCCC2)CC(=O)NO)n1 [UK-383367]
Plate 5 (% inhibition): 50.83%
Plate 5 (% conversion): 19.02%

COc1ccccc1N1CCN(CCCNc2cc(=O)n(C)c(=O)n2C)CC1 [Urapidil hydrochloride]
% conversion [2]: 27.32%

COc1ccccc1N1CCN(CCCNc2c(C)c(=O)n(C)c(=O)n2C)CC1 [Urapidil, 5-Methyl-]
% conversion: 36.82%

O=c1ccn([C@@H]2O[C@H](COP(=O)([O-])OP(=O)([O-])O)[C@@H](O)[C@H]2O)c(=O)[nH]1.[Na+].[Na+] [Uridine 5-diphosphate sodium]
% inhibition [1]: -0.23%
% conversion [2]: 36.55%

C[C@H](N)CN1CCc2ccc(Br)cc21.C[C@H](N)CN1CCc2ccc(Br)cc21.O=C(O)/C=C/C(=O)O [VER-3323 hemifumarate salt]
Plate 3 (% conversion): 21.58%

Cc1onc(-c2ccccc2)c1-c1ccc(S(N)(=O)=O)cc1 [Valdecoxib]
Plate 5 (% inhibition): 27.98%
Plate 5 (% conversion): 26.79%

CC(C)C(N)C(=O)OCC(CO)OCn1cnc2c(=O)[nH]c(N)nc21.Cl.O (stereo not drawn) [Valganciclovir hydrochloride hydrate]
Plate 2 (% conversion) [4]: 38.77%
Plate 2 (% inhibition) [5]: -8.41%

CCCC(CCC)C(=O)O [Valproic acid sodium]
Plate 3 (% conversion) [6]: 37.52%

CCN(CC)C(=O)c1ccc(O)c(OC)c1 [Vanillic acid diethylamide]
Plate 2 (% conversion) [4]: 35.22%
Plate 2 (% inhibition) [5]: 2.19%

O=C(O)C(O)C(O)C(=O)O.c1cnc2cc3c(cc2n1)[C@@H]1CNC[C@H]3C1 [Varenicline tartrate]
Plate 1 (% inhibition) [7]: 66.93%
Plate 1 (% conversion) [8]: 13.40%

c1cnc2cc3c(cc2n1)[C@@H]1CNC[C@H]3C1 [Varenicline]
Plate 5 (% inhibition): 75.86%
Plate 5 (% conversion): 10.50%

COc1ccc(C(CN(C)C)C2(O)CCCCC2)cc1 (stereo not drawn) [Venlafaxine hydrochloride]
Plate 2 (% conversion): 36.45%
inhibition at 20 µM (read-out: Plate 2 (% inhibition)): -1.48%

CC[C@]1(O)C[C@@H]2CN(CCc3c([nH]c4ccccc34)[C@@](C(=O)OC)(c3cc4c(cc3OC)N(C)[C@H]3[C@@](O)(C(=O)OC)[C@H](OC(C)=O)[C@]5(CC)C=CCN6CC[C@]43[C@@H]65)C2)C1.O=S(=O)(O)O [Vinblastine sulfate salt]
% conversion: 54.00%
% inhibition (20 µM): -51.36%

CC[C@]1(O)C[C@H]2CN(CCc3c([nH]c4ccccc34)[C@@](C(=O)OC)(c3cc4c(cc3OC)N(C=O)[C@H]3[C@@](O)(C(=O)OC)[C@H](OC(C)=O)[C@]5(CC)C=CCN6CC[C@]43[C@@H]65)C2)C1 [Vincristine sulfate]
% conversion [2]: 40.04%
inhibition at 20 µM [3]: -10.5%

CCOC(=O)C1=C[C@]2(CC)CCCN3CCc4c(n1c1ccccc41)[C@@H]32 [Vinpocetine]
% conversion [2]: 29.87%

C[C@@H](c1ncncc1F)[C@](O)(Cn1cncn1)c1ccc(F)cc1F [Voriconazole]
Plate 1 (% inhibition) [7]: -9.17%
Plate 1 (% conversion) [8]: 38.95%
Plate 5 (% inhibition): -1.65%
Plate 5 (% conversion): 36.88%

COc1ccccc1N1CCN(CCN(C(=O)C2CCCCC2)c2ccccn2)CC1.O=C(O)/C=C\C(=O)O [WAY-100635 maleate]
% conversion: 42.39%
% inhibition (20 µM): -17.34%

C#C[C@]1(O)CC[C@H]2[C@@H]3CCC4=Cc5nc6nc7ccccc7n6cc5C[C@]4(C)[C@H]3CC[C@@]21C [WIN 62,577]
% conversion: 37.03%
% inhibition (20 µM): -1.63%

COC[C@H]1OC(=O)c2coc3c2[C@@]1(C)C1=C(C3=O)[C@@H]2CCC(=O)[C@@]2(C)C[C@H]1OC(C)=O [Wortmannin from Penicillium funiculosum]
% conversion: 29.28%

COc1cc(/C=C(\C#N)C(=O)Nc2nnc(C(F)(F)F)s2)ccc1OCc1ccc(C(F)(F)F)cc1C(F)(F)F [XCT790]
% conversion [2]: 22.43%

Cc1cccc(C)c1N=C1NCCCS1 [Xylazine hydrochloride]
% conversion: 33.11%

Cc1cc(C(C)(C)C)cc(C)c1CC1=NCCN1 [Xylometazoline hydrochloride]
% conversion: 31.88%

CCc1ccc2c(-c3cccc(Cl)c3)nc(=O)n(CC)c2n1 [YM 976]
Plate 1 (% inhibition) [7]: -17.07%
Plate 1 (% conversion) [8]: 41.61%

COc1ccc(CCN(C)CCc2ccc(OC)c(OC)c2)cc1OC.Cl [YS-035 hydrochloride]
% inhibition [1]: -13.70%
% conversion [2]: 41.15%

COC(=O)[C@@H]1[C@H]2C[C@H]3c4[nH]c5ccccc5c4CCN3C[C@@H]2CC[C@@H]1O [Yohimbine hydrochloride]
inhibition at 20 µM: -4.13%

O=C(N[C@@H](Cc1ccccc1)C(=O)CCl)OCc1ccccc1 [Z-L-Phe chloromethyl ketone]
Plate 1 (% conversion): 35.86%
Plate 1 (% inhibition): 0.032%

CC(C)N(CCC(=O)c1ccc2ccccc2c1)Cc1ccccc1.Cl [ZM 39923 hydrochloride]
Plate 3 (% conversion) [6]: 15.79%

CCCOc1ccccc1-c1nc2nn[nH]c2c(=O)[nH]1 [Zaprinast]
% conversion [2]: 35.45%
inhibition at 20 µM [3]: 2.99%

CN(C)C/C=C(/c1ccc(Br)cc1)c1cccnc1 [Zimelidine dihydrochloride]
% conversion [2]: 37.91%

O=C1Cc2cc(CCN3CCN(c4nsc5ccccc45)CC3)c(Cl)cc2N1 [Ziprasidone hydrochloride monohydrate]
% conversion [2]: 26.15%

C[C@H](CSC(=O)c1ccccc1)C(=O)N1C[C@@H](Sc2ccccc2)C[C@H]1C(=O)[O-].C[C@H](CSC(=O)c1ccccc1)C(=O)N1C[C@@H](Sc2ccccc2)C[C@H]1C(=O)[O-].[Ca+2] [Zofenopril calcium]
% conversion: 32.50%
% inhibition (20 µM): 11.63%

O=P(O)(O)C(O)(Cn1ccnc1)P(=O)(O)O [Zoledronic acid monohydrate]
Plate 3 (% conversion): 37.14%

NS(=O)(=O)Cc1noc2ccccc12 [Zonisamide sodium]
% conversion [2]: 32.12%

CC(N)Cc1c[nH]c2ccc(O)cc12.O=C(O)/C=C\C(=O)O (stereo not drawn) [alpha-Methyl-5-hydroxytryptamine maleate]
Plate 3 (% conversion): 39.06%

NC(CO)C(=O)NNCc1ccc(O)c(O)c1O (stereo not drawn) [benserazide, reference compound]
IC50 [9]: 3490 ± 760 nM
inhibition at 20 µM (AspH activity, fixed compound concentration 20 μM, initial LOPAC screen, 0.5%v/v DMSO, read-out: Inhibition at 20 µM [%]): 95.2%
Plate 1 (% inhibition) [7]: 95.21%
Plate 1 (% conversion) [8]: 3.90%

O=C(O)/C=C/c1ccc(O)c(O)c1 [caffeic acid, reference compound]
IC50 [9]: 240 ± 80 nM
Plate 1 (% conversion) [8]: 3.16%

CCOc1nc2cccc(C(=O)O)c2n1Cc1ccc(-c2ccccc2-c2nnn[nH]2)cc1 [candesartan, reference compound]
IC50 [μM] [9]: no inhibition
